# Data reported in PMC7911889 (Viruses, 2021).
# Like-named read-outs stand apart in the source and are kept apart here. Non-standard residues stand in square brackets, D forms with d. Residues, ends and D or L forms follow the SMILES beside them. *: point of attachment. Nva = CCC[C@H](N)C(=O)O; Cbz = O=C(OCc1ccccc1)*
# Assays:
# in vitro = conditions: human
# cell culture = conditions: cited from earlier work
# [1] = test system: 293T human embryonic kidney cells
# SARS-CoV-2 = test system: SARS-CoV-2; set-up: method as in per compound as in References column of Table 1; conditions: read-out: Reported EC50 for inhibition of SARS-CoV-2 replication in cell culture; cited from earlier work
# [2] = read-out: CC50, CellTiter-Glo 2.0 assay, transfected 293T cells, 30 h post-transfection
# [3] = transfected 293T cells (human embryonic kidney)
compound,measurement,setting,value
CC(C)CN(C[C@@H](O)[C@H](Cc1ccccc1)NC(=O)O[C@H]1CCOC1)S(=O)(=O)c1ccc(N)cc1 [Amprenavir],CC50 at 30 h post-transfection,in vitro,> 100 µM
C=C[C@@H]1C[C@]1(NC(=O)[C@@H]1C[C@@H](Oc2ncc(OC)c3ccc(Cl)cc23)CN1C(=O)[C@@H](NC(=O)OC(C)(C)C)C(C)(C)C)C(=O)NS(=O)(=O)C1CC1 [Asunaprevir],CC50,in vitro,31.5 µM
COC(=O)N[C@H](C(=O)N[C@@H](Cc1ccccc1)[C@@H](O)CN(Cc1ccc(-c2ccccn2)cc1)NC(=O)[C@@H](NC(=O)OC)C(C)(C)C)C(C)(C)C [Atazanavir],CC50 at 30 h post-transfection,in vitro,> 100 µM
O=c1cc(-c2ccccc2)oc2cc(O)c(O)c(O)c12 [Baicalein],CC50,in vitro,> 100 µM
CC(C)(C)NC(=O)N[C@H](C(=O)N1C[C@H]2[C@@H]([C@H]1C(=O)NC(CC1CCC1)C(=O)C(N)=O)C2(C)C)C(C)(C)C (stereo partly drawn) [Boceprevir],CC50 at 30 h post-transfection,in vitro,> 100 µM
same,Reported CC50 (corresponding to reported EC50),cell culture,>100–>200
CSCC[C@@H](C=O)NC(=O)[C@H](CC(C)C)NC(=O)[C@H](CC(C)C)NC(C)=O [Calpain Inhibitor II] (Ac-Leu-Leu-Met-aldehyde),CC50,[1],> 100 µM
same,Reported CC50 (corresponding to reported EC50),cell culture,>100 µM
CCCC(NC(=O)C(CC(C)C)NC(=O)OCc1ccccc1)C(=O)C(=O)NCc1ccccn1 (stereo not drawn) [Calpain Inhibitor XII],CC50,[1],> 100 µM
same,Reported CC50 (corresponding to reported EC50),cell culture,>100 µM
O=C1C(Cl)=C(NCCN2CCOCC2)C(=O)c2ncccc21 [DA-3003-1],CC50,[1]; [2],7.7 µM
same,Reported CC50 (corresponding to reported EC50),cell culture,7.7 µM
CC(C)CN(C[C@@H](O)[C@H](Cc1ccccc1)NC(=O)O[C@H]1CO[C@H]2OCC[C@H]21)S(=O)(=O)c1ccc(N)cc1 [Darunavir],EC50,SARS-CoV-2,46.4 µM
O=c1c2ccccc2[se]n1-c1ccccc1 [Ebselen],CC50,in vitro,8 µM
CC(C)C[C@H](NC(=O)OCc1ccccc1)C(=O)N[C@@H](CC1CCNC1=O)C(O)S(=O)(=O)O (stereo partly drawn) [GC376],CC50,[1],> 100 µM
same,EC50,SARS-CoV-2,0.2 to 4.5 µM
CC(C)C[C@H](NC(=O)OCc1ccccc1)C(=O)N[C@@H](C[C@@H]1CCNC1=O)C(O)S(=O)(=O)[O-].[Na+] (stereo partly drawn) [GC376],Effect on cell viability (in words),[1],no significant effect on cell viability up to 100 µM
same,Reported CC50 (corresponding to reported EC50),cell culture,>100–>200
C=C[C@@H]1C[C@]1(NC(=O)[C@@H]1C[C@@H]2CN1C(=O)[C@H](C(C)(C)C)NC(=O)O[C@@H]1C[C@H]1CCCCCc1nc3ccc(OC)cc3nc1O2)C(=O)NS(=O)(=O)C1CC1 [Grazoprevir],CC50,[1],57.4 µM
CC(C)(C)NC(=O)[C@@H]1CN(Cc2cccnc2)CCN1C[C@@H](O)C[C@@H](Cc1ccccc1)C(=O)N[C@H]1c2ccccc2C[C@H]1O [Indinavir],CC50,in vitro,> 100 µM
Cc1cccc(C)c1OCC(=O)N[C@@H](Cc1ccccc1)[C@@H](O)C[C@H](Cc1ccccc1)NC(=O)[C@H](C(C)C)N1CCCNC1=O [Lopinavir],CC50,in vitro,29.1 µM
O=C(Oc1cncc(Cl)c1)c1cccs1 [MAC 5576],CC50,[1],> 100 µM
same,Reported CC50 (corresponding to reported EC50),cell culture,>100 µM
CCC[C@@H](C=O)NC(=O)[C@H](CC(C)C)NC(=O)[C@H](CC(C)C)NC(=O)OCc1ccccc1 [MG-115] (Cbz-Leu-Leu-[Nva]-aldehyde),CC50,[1]; [2],11 µM
same,Reported CC50 (corresponding to reported EC50),cell culture,1.1 µM
COc1ccc2cc(-c3cc(-c4cc(Cl)cc(Cl)c4)nn3[C@@H](C)c3ccc(C(=O)NCCC(=O)O)cc3)ccc2c1 [MK 0893],CC50,in vitro,42.3 µM
same,Reported CC50 (corresponding to reported EC50),cell culture,12.6 µM
same,EC50,SARS-CoV-2,3.2 µM
Cc1ccc(NC(=O)c2ccc(CN3CCN(C)CC3)cc2)cc1Nc1nc(-c2cccnc2)cs1 [Masitinib],CC50 at 30 h post-transfection,in vitro; [3],3 µM
Cc1c(O)cccc1C(=O)N[C@@H](CSc1ccccc1)[C@H](O)CN1C[C@H]2CCCC[C@H]2C[C@H]1C(=O)NC(C)(C)C [Nelfinavir],CC50,in vitro,11.2 µM
CCN(CC)CCCC(C)Nc1c2ccc(Cl)cc2nc2ccc(OC)cc12 (stereo not drawn) [Quinacrine],CC50,in vitro,2.5 µM
CC(C)(C)NC(=O)[C@@H]1C[C@@H]2CCCC[C@@H]2CN1C[C@@H](O)[C@H](Cc1ccccc1)NC(=O)[C@H](CC(N)=O)NC(=O)c1ccc2ccccc2n1 [Saquinavir],CC50,in vitro,27.3 µM
COc1ccc2c(O[C@@H]3C[C@H]4C(=O)N[C@]5(C(=O)NS(=O)(=O)C6CC6)C[C@H]5/C=C\CCCCN(C)C(=O)[C@@H]4C3)cc(-c3nc(C(C)C)cs3)nc2c1C [Simeprevir],CC50 at 30 h post-transfection,in vitro,19.6 µM
Cc1ccc(C(=O)Nc2ccc(S(=O)(=O)O)c3cc(S(=O)(=O)O)cc(S(=O)(=O)O)c23)cc1NC(=O)c1cccc(NC(=O)Nc2cccc(C(=O)Nc3cc(C(=O)Nc4ccc(S(=O)(=O)O)c5cc(S(=O)(=O)O)cc(S(=O)(=O)O)c45)ccc3C)c2)c1 [Suramin],CC50,in vitro,> 100 µM
same,Reported CC50 (corresponding to reported EC50),cell culture,>20–>5000
same,EC50,SARS-CoV-2,20 µM
Brc1c(Br)c(Br)c2n[nH]nc2c1Br [TBB],Reported CC50 (corresponding to reported EC50),cell culture,8.9 µM
COc1cc(C)c2c(Oc3cccc(C(F)(F)F)c3)c(OC)cc(NC(C)CCCN)c2n1 (stereo not drawn) [Tafenoquine],CC50 at 30 h post-transfection,in vitro,2 µM
same,Reported CC50 (corresponding to reported EC50),cell culture,37.2 µM
CCC[C@H](NC(=O)[C@@H]1[C@H]2CCC[C@H]2CN1C(=O)[C@@H](NC(=O)[C@@H](NC(=O)c1cnccn1)C1CCCCC1)C(C)(C)C)C(=O)C(=O)NC1CC1 [Telaprevir],CC50 at 30 h post-transfection,in vitro; [3],71.5 µM
CCC[C@@]1(CCc2ccccc2)CC(O)=C([C@H](CC)c2cccc(NS(=O)(=O)c3ccc(C(F)(F)F)cn3)c2)C(=O)O1 [Tipranavir],CC50 at 30 h post-transfection,in vitro,85.1 µM
Cn1nc(-c2ccc(C(F)(F)F)cc2)nc2c(=O)n(C)c(=O)nc1-2 [Walrycin B],CC50,[1],29 µM
same,Reported CC50 (corresponding to reported EC50),cell culture,4.3 µM
CC(NC(=O)[C@H](Cc1ccccc1)NC(=O)OCc1ccccc1)C(=O)CF (stereo partly drawn) [Z-FA-FMK],CC50,[1]; [2],> 100 µM
same,Reported CC50 (corresponding to reported EC50),cell culture,>20 µM
COc1cccc2c1C(=O)c1c(O)c3c(c(O)c1C2=O)C[C@@](O)(C(=O)CO)C[C@@H]3O[C@H]1C[C@H](N)[C@H](O)[C@H](C)O1 [doxorubicin],CC50 at 30 h post-transfection,in vitro; [3],3.7 µM
O.O=C(OC[C@H]1O[C@@H](OC(=O)c2cc(O)c(O)c(O)c2)[C@H](OC(=O)c2cc(O)c(O)c(O)c2)[C@@H](OC(=O)c2cc(O)c(O)c(O)c2)[C@@H]1OC(=O)c1cc(O)c(O)c(O)c1)c1cc(O)c(O)c(O)c1 [penta-O-galloyl-beta-D-glucose hydrate],CC50,[1],30.4 µM
same,Reported CC50 (corresponding to reported EC50),cell culture,11.2 µM
GRL-0496,CC50,[1],53.2 µM
same,Reported CC50 (corresponding to reported EC50),cell culture,81.0 µM
same,EC50,SARS-CoV-2,9.1 µM
